Ten compounds from paper PMC6916368, “Cell‐Based Optimization of Covalent Reversible Ketoamide Inhibitors Bridging the Unprimed to the Primed Site of the Proteasome β5 Subunit” (Chemmedchem, 2019) can be followed below.

Peptide text beside a SMILES is read from it. * marks the point of attachment. Cbz = O=C(OCc1ccccc1)*; OtBu = CC(C)(C)O*

In one assay the test system is MV4‐11 cells. The assay can be described thus: Cell viability endpoint assay (Celltiter Blue, 72 h). It is filed as cell-based. The following applies: for IC50: Homo sapiens, MV4-11, mean±SD from two independent experiments. Here is the method:
Cell lines. MV4‐11 (ACC 102), Jurkat (ACC 282) and THP‐1 (ACC 16) cells were obtained from DSMZ and maintained at 37 °C and 5 % CO2 at densities between 0.2–1×10^6 cells per mL in RMPI‐1640 medium supplemented with 10 % FBS, L‐glutamine (2 mM) and penicillin/streptomycin.
Cell viability endpoint assay. For the determination of cytotoxicity of proteasome inhibitors 50.000 cells per well were plated in 90 μl RPMI‐1640 medium supplemented with 0.1 % FBS and incubated overnight at 37 °C and 5 % CO2. Inhibitors were serially diluted in RPMI‐1640 medium as 10‐fold stocks and added to cells giving the final concentration (1 nM to 10 μM, Figure S2–S4) and incubated for 72 h at 37 °C and 5 % CO2. Cell viability was determined using the Celltiter Blue assay (Promega) by adding 20 μl of reagent, incubation for 120 minutes at 37 °C and 5 % CO2 and fluorescent read‐out using a Tecan M1000 microplate reader. Dose‐response curves were fitted to the equation “Y=Bottom+(Top‐Bottom)/(1+10^(X−L°^gIC50))” using GraphPad Prism 7.02. IC50 values are determined from technical triplicates as mean value of two independent experiments. Standard deviations (Table S1) as well as dose response curves (SI chapter 2b) are given in the supplementary information.
On the technique in general: Resazurin is reduced to fluorescent resorufin, in cell work by metabolically active cells.

The target in assay [1] is T1, β5c subunit of isolated human 20S proteasome (Homo sapiens, UniProt P28074).
T1 construct: purchased Enzo Life Sciences
The assay can be described thus: Proteasome inhibition assay (20 S Proteasome Assay Kit, Suc‐LLVY‐AMC). It is filed as biochemical. The note with it: for inhibition at 1 µM: c = 1 µM, n=1, read-out: Inhibition cCP β5; for inhibition at 0.1 µM: c=100 nM, read-out: Rel. Inhibition β5c. Here is the method:
(§1) Proteasome inhibition assay. […] The 20 S Proteasome Assay Kit for Drug Discovery was used according to the supplier's protocol using Suc‐LLVY‐AMC (β5), Bz‐VGR‐AMC (β2) or Z‐LLE‐AMC (β1) as substrates (Enzo Life Sciences). Single point measurements of residual activity of proteasome activity were performed at a final concentration of 100 nM (n=3, β5c, β5i) or 1 μM (n=1, β1c, β2c, β5c, β5i, SI chapter 2a, Table S1). […] Inhibitors were prepared in 2‐fold concentration (cfinal=100 nM) and added to proteasomes (mfinal=200 ng/well). After 30 min incubation, substrate was added (cfinal=100 μM), incubated for 60 minutes and fluorescence was read using a Tecan M1000 microplate reader. […] IC50 values were determined from technical duplicates as mean value of three independent experiments.

Assay [2] addresses T2, β5i subunit of isolated human 20S proteasome (Homo sapiens, UniProt P28062).
T2 construct: purchased Enzo Life Sciences
The description is as above. Type of assay: biochemical. The following applies: for inhibition at 1 µM: c = 1 µM, n=1, read-out: Inhibition iCP β5; for inhibition at 0.1 µM: c=100 nM, read-out: Rel. Inhibition β5i. Here is the method:
as §1

For assay [3], the target named is T3, β1c subunit of isolated human 20S proteasome (Homo sapiens, UniProt P28072).
T3 construct: purchased Enzo Life Sciences
The assay can be described thus: Proteasome inhibition assay (20 S Proteasome Assay Kit, Z‐LLE‐AMC). Type of assay: biochemical. The note with it: c = 1 µM, n=1; read-out: Inhibition cCP β1. Here is the method:
as §1

Assay [4] has as its target T4, β2c subunit of isolated human 20S proteasome (Homo sapiens, UniProt Q99436).
T4 construct: purchased Enzo Life Sciences
Kind of assay: Proteasome inhibition assay (20 S Proteasome Assay Kit, Bz‐VGR‐AMC). Type of assay: biochemical. The note with it: c = 1 µM, n=1; read-out: Inhibition cCP β2. Here is the method:
Proteasome inhibition assay. Bortezomib (Selleckchem) and carfilzomib (MedChemExpress) were purchased and used without further purification. The 20 S Proteasome Assay Kit for Drug Discovery was used according to the supplier's protocol using Suc‐LLVY‐AMC (β5), Bz‐VGR‐AMC (β2) or Z‐LLE‐AMC (β1) as substrates (Enzo Life Sciences). Single point measurements of residual activity of proteasome activity were performed at a final concentration of 100 nM (n=3, β5c, β5i) or 1 μM (n=1, β1c, β2c, β5c, β5i, SI chapter 2a, Table S1). […] Inhibitors were prepared in 2‐fold concentration (cfinal=100 nM) and added to proteasomes (mfinal=200 ng/well). After 30 min incubation, substrate was added (cfinal=100 μM), incubated for 60 minutes and fluorescence was read using a Tecan M1000 microplate reader. Dose‐response curves were fitted to the equation Y=100/(1+10^((L°^gIC50−X)*HillSl°^pe)) using GraphPad Prism 7.02. IC50 values were determined from technical duplicates as mean value of three independent experiments.

Usually IC50 stands for the concentration that gives 50% inhibition. Higher therefore signals weaker potency in that assay. By inhibition is commonly meant the relative decrease from the control value, in per cent. In the assay on MV4‐11 cells, `CC(C)C[C@@H](C=O)NC(=O)[C@H](CC(C)C)NC(=O)[C@H](CC(C)C)NC(=O)Cn1cnc2ccccc2c1=O` [Compound 22, (S)‐4‐Methyl‐N‐((S)‐4‐methyl‐1‐(((S)‐4‐methyl‐1‐oxopentan‐2‐yl)amino)‐1‐oxopentan‐2‐yl)‐2‐(2‐(4‐oxoquinazolin‐3(4H)‐yl)acetamido)pentanamide] showed an IC50 above 1000 nM. For the same compound, in the assay with MV4‐11 cells (mean±SD from two independent experiments), the “IC50 MV4‐11” value was “inactive”. Moreover, the inhibition at 1 µM in assay [1] is 43%; in assay [2], 28%; in assay [3], 28%; in assay [4] it was -10%. Further, the inhibition at 0.1 µM is 6% in assay [1] and 11% in assay [2].
In turn, `CC(C)C[C@H](NC(=O)OCc1ccccc1)C(=O)N[C@@H](CC(C)C)C(=O)N[C@@H](CC(C)C)C(=O)C(=O)Nc1ccc(Oc2ccccc2)cc1` [Compound 10, Benzyl‐((S)‐4‐methyl‐1‐(((S)‐4‐methyl‐1‐(((S)‐5‐methyl‐1,2‐dioxo‐1‐((4‐phenoxyphenyl)‐amino)hexan‐3‐yl)amino)‐1‐oxopentan‐2‐yl)amino)‐1‐oxopentan‐2‐yl)carbamate] gave a half-maximal inhibitory concentration (IC50) in the assay with MV4‐11 cells of 45 ± 3 nM. The inhibition at 1 µM in assay [1] was 63%; in assay [2], 23%; in assay [3], -3%; in assay [4], 2%. Moreover, the inhibition at 0.1 µM came out at 25% in assay [1] and 5% in assay [2].
Take `CC(C)C[C@@H](C=O)NC(=O)[C@H](CC(C)C)NC(=O)[C@H](CC(C)C)NC(=O)c1cc(Cl)ccc1Cl` [Compound 24, 2,5‐Dichloro‐N‐((S)‐4‐methyl‐1‐(((S)‐4‐methyl‐1‐(((S)‐4‐methyl‐1‐oxopentan‐2‐yl)‐amino)‐1‐oxo‐pentan‐2‐yl)amino)‐1‐oxopentan‐2‐yl)benzamide]: the IC50 in the assay on MV4‐11 cells is 16 ± 1 nM. Also, the inhibition at 1 µM in assay [1] was found to be 94%; in assay [2], 89%; in assay [3] it was 13%; in assay [4], 26%. The inhibition at 0.1 µM in assay [1] was 76%; in assay [2], 60%.
For `CC(C)C[C@H](NC(=O)OCc1ccccc1)C(=O)N[C@@H](CC(=O)OC(C)(C)C)C(=O)N[C@@H](CC(C)C)C(=O)C(=O)Nc1ccc(Oc2ccccc2)cc1` [Compound 20, tert ‐Butyl‐(S)‐3‐((S)‐2‐(((benzyloxy)carbonyl)amino)‐4‐methylpentanamido)‐4‐(((S)‐5‐methyl‐1,2‐dioxo‐1‐((4‐phenoxyphenyl)amino)hexan‐3‐yl)amino)‐4‐oxobutanoate], half-maximal inhibition in the assay on MV4‐11 cells (IC50) required 68 ± 9 nM. Also, the inhibition at 1 µM in assay [1] was 38%; in assay [2], 22%; in assay [3], -24%; in assay [4], -7%. In addition, the inhibition at 0.1 µM in assay [1] amounted to 41%; in assay [2] it was 40%.
As to `CC(C)C[C@H](NC(=O)OCc1ccccc1)C(=O)N[C@@H](CC(=O)OC(C)(C)C)C(=O)N[C@@H](CC(C)C)C(=O)C(=O)Nc1cccc(Oc2ccccc2)c1` [Compound 19, tert ‐Butyl‐(S)‐3‐((S)‐2‐(((benzyloxy)carbonyl)amino)‐4‐methylpentanamido)‐4‐(((S)‐5‐methyl‐1,2‐dioxo‐1‐((3‐phenoxyphenyl)amino)hexan‐3‐yl)amino)‐4‐oxobutanoate], the IC50 in the assay on MV4‐11 cells worked out at 36 ± 5 nM. Besides, the inhibition at 1 µM in assay [1] was 84%; in assay [2], 31%; in assay [3], -15%; in assay [4], 9%. In addition, the inhibition at 0.1 µM turned out to be 53% in assay [1] and 43% in assay [2].
With `CC(C)C[C@H](NC(=O)OCc1ccccc1)C(=O)N[C@@H](CC(=O)OC(C)(C)C)C(=O)N[C@@H](CC(C)C)C(=O)C(=O)Nc1ccccc1` [Compound 16, tert ‐Butyl‐(S)‐3‐((S)‐2‐(((benzyloxy)carbonyl)amino)‐4‐methylpentanamido)‐4‐(((S)‐5‐methyl‐1,2‐dioxo‐1‐(phenylamino)hexan‐3‐yl)amino)‐4‐oxobutanoate], the half-inhibitory concentration (IC50) in the assay on MV4‐11 cells came to 46 ± 6 nM. Further, the inhibition at 1 µM in assay [1] is 91%; in assay [2], 76%; in assay [3], 12%; in assay [4], -8%. Also, the inhibition at 0.1 µM in assay [1] was 57%; in assay [2], 48%.
As for `CC(C)C[C@@H](C=O)NC(=O)[C@H](CC(=O)OC(C)(C)C)NC(=O)[C@H](CC(C)C)NC(=O)OCc1ccccc1` [Compound 5, BSc2118, reference compound] (Cbz-Leu-Asp(OtBu)-Leu-aldehyde), in the assay with MV4‐11 cells, the IC50 was found to be 123 ± 12 nM. Further, the inhibition at 1 µM was 90% in assay [1], 72% in assay [2], 16% in assay [3] and 4% in assay [4]. Further, the values for the inhibition at 0.1 µM in assay [1] and in assay [2] were 54% and 11%, respectively.
In turn, `Cc1cc(C)c(Oc2ccccc2)cc1NC(=O)C(=O)[C@H](CC(C)C)NC(=O)[C@H](CC(=O)OC(C)(C)C)NC(=O)[C@H](CC(C)C)NC(=O)c1cc(Cl)ccc1Cl` [Compound 29, tert ‐Butyl (S)‐3‐((S)‐2‐(2,5‐dichlorobenzamido)‐4‐methylpentanamido)‐4‐(((S)‐1‐((2,4‐dimethyl‐5‐phenoxyphenyl)amino)‐5‐methyl‐1,2‐dioxohexan‐3‐yl)amino)‐4‐oxobuta‐noate] yielded a 50% inhibitory concentration (IC50) in the assay with MV4‐11 cells of 58 ± 10 nM. The inhibition at 1 µM in assay [1] was 53%; in assay [2] it was -1%; in assay [3], -19%; in assay [4], -4%. For the same compound, the results for the inhibition at 0.1 µM in assay [1] and in assay [2] were 26% and 8%, respectively.
For `Cc1cc(C)c(Oc2ccccc2)cc1NC(=O)C(=O)[C@H](CC(C)C)NC(=O)[C@H](CC(C)C)NC(=O)[C@H](CC(C)C)NC(=O)OCc1ccccc1` [Compound 11, Benzyl((S)‐1‐(((S)‐1‐(((S)‐1‐((2,4‐dimethyl‐5‐phenoxyphenyl)amino)‐5‐methyl‐1,2‐dioxo‐hexan‐3‐yl)amino)‐4‐methyl‐1‐oxopentan‐2‐yl)amino)‐4‐methyl‐1‐oxopentan‐2‐yl)carbama‐te], 19 ± 1 nM corresponded to half-maximal inhibition in the assay on MV4‐11 cells (IC50). Further, the inhibition at 1 µM in assay [1] was 59%; in assay [2], 10%; in assay [3], -10%; in assay [4], 10%. For the same compound, the inhibition at 0.1 µM was determined as 46% in assay [1] and 12% in assay [2].
As to `CC(C)C[C@@H](C=O)NC(=O)[C@H](CC(C)C)NC(=O)[C@H](CC(C)C)NC(=O)c1cnccn1` [Compound 23, N ‐((S)‐4‐Methyl‐1‐(((S)‐4‐methyl‐1‐(((S)‐4‐methyl‐1‐oxopentan‐2‐yl)amino)‐1‐oxopentan‐2‐yl)amino)‐1‐oxopentan‐2‐yl)pyrazine‐2‐carboxamide], in the assay on MV4‐11 cells, the IC50 was determined as 145 ± 23 nM. The inhibition at 1 µM amounted to 75% in assay [1], 64% in assay [2], 19% in assay [3] and 49% in assay [4]. Besides, the inhibition at 0.1 µM in assay [1] is 30%; in assay [2], 4%.
